Experiment [1] concerns CCK-8 induced contraction of guinea pig gall bladder. Briefly: Anti-CCK activity on gall bladder strips in vitro. The following applies: CCK-8 10 ng/ml. The method, then:
ANTI-CCK ACTIVITY ON GUINEA PIG GALL BALDDERS IN VITRO
A longitudinal strip of guinea pig gall bladder was placed in a bath of isolated members in the presence of Krebs at a temperature of 32° C. with continuous oxygenation with an oxygen-CO2 mixture (95-5V/V).
The isometric contractions were detected by means of a force transducer and recorded.
The gall bladder was made to contract with the use of a 10 ng/ml concentration of CCK-8; the antagonistic activity of the compounds of the invention on the contracting effect of the CCK was determined with the use of different concentrations and the ED 50 value, that is the concentration in μg/ml of a compound which could antagonise 50% of the contracting effect of the CCK, was determined.

In the next experiment the test system is morphine analgesia. Briefly: Increase in analgesia of morphine, Tail Flick Test (Experiment 1). Type of experiment: in vivo, rats. The following applies: for percentage variation of latency of pain sensation / M (10-90) ± SE, mean percentage variation of latency: compound 10 mg/kg i.p. + morphine 2 mg/kg; for M (10-90) ± SE, mean percentage variation of latency: mean 10-90 min; for Power ratio with respect to morphine alone: rat, in vivo. In a few lines:
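Tail-flick latency to 75 °C radiant heat, capped at 8 s, measured in male non-fasted rats weighing 150-200 g. Percentage change per animal derived from pre-treatment baseline versus post-drug readings at 10-90 min (10, 20, 30, 45, 60, 90 min).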

As for `CCCN(CCC)C(=O)C(CCC(=O)O)NC(=O)c1ccccc1Cl` (stereo not drawn) [Compound C-1], in experiment [1], the “ED50 (concentration antagonising 50% of contracting effect of CCK-8)” value was greater than 200 µg/mL. Moreover, the “percentage variation of latency of pain sensation” value with morphine analgesia (10') stood at 65.3 ± 18.0%; in the experiment on morphine analgesia (20'), 67.2%; with morphine analgesia (30') it was 66.3 ± 14.0%; in the experiment on morphine analgesia (45') it was 82.7 ± 11.0%; in the experiment on morphine analgesia (60') it was 68.8 ± 17.0%; with morphine analgesia (90'), 59.3 ± 25.0%. In addition, the “M (10-90) ± SE, mean percentage variation of latency” value with morphine analgesia was determined as 68.2%. Moreover, the “Power ratio with respect to morphine alone” value (“Power ratio” below) in the experiment with morphine analgesia was 2.29.

Regarding `CCCCN(CCCC)C(=O)C(CCC(=O)O)NC(=O)c1cc(Cl)c(Cl)c(Cl)c1` (stereo not drawn) [Compound C-11], the “ED50 (concentration antagonising 50% of contracting effect of CCK-8)” value in experiment [1] was found to be 0.85 µg/mL. Also, the “percentage variation of latency of pain sensation” value in the experiment with morphine analgesia (10') was found to be 25.2 ± 4.0%; in the experiment on morphine analgesia (20'), 37.6 ± 16.0%; in the experiment on morphine analgesia (30'), 50.9 ± 11.0%; in the experiment on morphine analgesia (45'), 54.4 ± 9.0%; with morphine analgesia (60') it was 35.8%; in the experiment on morphine analgesia (90'), 18.7 ± 10.0%. Further, in the experiment on morphine analgesia, the “M (10-90) ± SE, mean percentage variation of latency” value was 37.1 ± 14.0%. In addition, the “Power ratio” value in the experiment with morphine analgesia was 1.24.

On to `CCCN(CCC)C(=O)C(CCC(=O)O)NC(=O)c1ccccc1I` (stereo not drawn) [Compound C-17], for which, in experiment [1], the “ED50 (concentration antagonising 50% of contracting effect of CCK-8)” value was greater than 200 µg/mL. The “percentage variation of latency of pain sensation” value with morphine analgesia (10') is listed as 18.9%; in the experiment on morphine analgesia (20'), 37.0 ± 12.0%; with morphine analgesia (30'), 45.8 ± 18.0%; in the experiment with morphine analgesia (45'), 41.0 ± 17.0%; in the experiment on morphine analgesia (60'), 39.3 ± 20.0%; in the experiment on morphine analgesia (90'), 31.2 ± 18.0%. Besides, in the experiment on morphine analgesia, the “M (10-90) ± SE, mean percentage variation of latency” value is listed as 35.5 ± 9.5%. Moreover, the “Power ratio” value in the experiment on morphine analgesia was found to be 1.19.

For the compound `CN(C)C(=O)CCC(NC(=O)c1ccc(Cl)c(Cl)c1)C(=O)O` [Compound D-1], in experiment [1], the “ED50 (concentration antagonising 50% of contracting effect of CCK-8)” value is greater than 200 µg/mL. Also, the “percentage variation of latency of pain sensation” value with morphine analgesia (10') was determined as 75.0 ± 16.0%; in the experiment on morphine analgesia (20') it was 100.0 ± 0.0%; in the experiment on morphine analgesia (30'), 100.0 ± 0.0%; in the experiment on morphine analgesia (45'), 86.4 ± 14.0%; with morphine analgesia (60') it was 100.0 ± 0.0%; in the experiment with morphine analgesia (90'), 51.0 ± 21.0%. Also, the “M (10-90) ± SE, mean percentage variation of latency” value in the experiment on morphine analgesia was 85.4 ± 19.7%. The “Power ratio” value in the experiment on morphine analgesia stood at 2.86.

For the compound `CCCN(CCC)C(=O)C(CC(=O)O)NC(=O)c1cccc(C#N)c1` (stereo not drawn) [Compound C-22], in experiment [1], the “ED50 (concentration antagonising 50% of contracting effect of CCK-8)” value is greater than 200 µg/mL. Besides, the “percentage variation of latency of pain sensation” value in the experiment with morphine analgesia (10') turned out to be 82.7 ± 9.4%; in the experiment with morphine analgesia (20'), 67.6 ± 18.0%; in the experiment with morphine analgesia (30'), 88.4 ± 9.3%; with morphine analgesia (45'), 83.3%; in the experiment on morphine analgesia (60'), 93.6 ± 6.4%; in the experiment on morphine analgesia (90'), 53.8 ± 14.9%. The “M (10-90) ± SE, mean percentage variation of latency” value in the experiment on morphine analgesia is 78.2 ± 15.0%. The “Power ratio” value in the experiment on morphine analgesia is given as 2.62.

Turning to `N#Cc1cccc(C(=O)NC(CC(=O)O)C(=O)NC2CCCCC2)c1` (stereo not drawn) [Compound C-23], in experiment [1], the “ED50 (concentration antagonising 50% of contracting effect of CCK-8)” value was greater than 200 µg/mL. Moreover, the “percentage variation of latency of pain sensation” value stood at 33.1 ± 19.0% in the experiment on morphine analgesia (10'); 49.9 ± 15.0% in the experiment on morphine analgesia (20'); 58.2 ± 17.0% in the experiment on morphine analgesia (30'); 68.3 ± 20.0% in the experiment on morphine analgesia (45'); 72.0% in the experiment with morphine analgesia (60'); 58.7 ± 22.0% in the experiment with morphine analgesia (90'). Besides, in the experiment on morphine analgesia, the “M (10-90) ± SE, mean percentage variation of latency” value stood at 56.7 ± 14.0%. Also, the “Power ratio” value with morphine analgesia stood at 1.90.

As for `CCCN(CCC)C(=O)C(CCC(=O)O)NC(=O)c1cc(F)cc(F)c1` (stereo not drawn) [Compound C-13], in experiment [1], the “ED50 (concentration antagonising 50% of contracting effect of CCK-8)” value is greater than 200 µg/mL. The “percentage variation of latency of pain sensation” value is listed as 24.6 ± 8.9% in the experiment on morphine analgesia (10'); 70.0 ± 18.5% in the experiment on morphine analgesia (20'); 75.5 ± 15.0% in the experiment on morphine analgesia (30'); 56.6% in the experiment on morphine analgesia (45'); 62.3 ± 17.3% with morphine analgesia (60'); 59.2 ± 25.1% in the experiment with morphine analgesia (90'). Further, in the experiment with morphine analgesia, the “M (10-90) ± SE, mean percentage variation of latency” value came to 58.0 ± 18.0%. Also, the “Power ratio” value in the experiment with morphine analgesia is listed as 1.95.

With `CCCN(CCC)C(=O)C(CCC(=O)O)NC(=O)c1ccc(C)cc1C` (stereo not drawn) [Compound C-32], the “ED50 (concentration antagonising 50% of contracting effect of CCK-8)” value in experiment [1] is greater than 300 µg/mL. In addition, the “percentage variation of latency of pain sensation” value in the experiment on morphine analgesia (10') is given as 21.8 ± 5%; in the experiment on morphine analgesia (20') it was 58.6 ± 17%; with morphine analgesia (30'), 83.5 ± 10%; with morphine analgesia (45'), 89.8 ± 8%; in the experiment with morphine analgesia (60') it was 78.4 ± 13%; in the experiment with morphine analgesia (90') it was 52.2 ± 22%. Moreover, the “M (10-90) ± SE, mean percentage variation of latency” value in the experiment with morphine analgesia is given as 64.0 ± 25%. In the experiment on morphine analgesia, the “Power ratio” value is 2.15.

With `CCCN(CCC)C(=O)C(CCC(=O)O)NC(=O)c1ccc(Br)cc1` (stereo not drawn) [Compound C-15], the “ED50 (concentration antagonising 50% of contracting effect of CCK-8)” value in experiment [1] was greater than 200 µg/mL. Moreover, the “percentage variation of latency of pain sensation” value is recorded as 59.8 ± 14.0% in the experiment on morphine analgesia (10'); 84.2 ± 9.6% with morphine analgesia (20'); 78.3 ± 13.5% in the experiment with morphine analgesia (30'); 88.7 ± 8.5% in the experiment on morphine analgesia (45'); 82.5 ± 12.7% in the experiment on morphine analgesia (60'); 54.5 ± 14.7% with morphine analgesia (90'). The “M (10-90) ± SE, mean percentage variation of latency” value with morphine analgesia came to 74.7%. Also, the “Power ratio” value in the experiment on morphine analgesia came to 2.51.

`CCCCN(CCCC)C(=O)C(CCC(=O)O)NC(=O)c1cccc(C#N)c1` (stereo not drawn) [Compound C-24]: the “ED50 (concentration antagonising 50% of contracting effect of CCK-8)” value in experiment [1] was greater than 200 µg/mL. For the same compound, the “percentage variation of latency of pain sensation” value in the experiment with morphine analgesia (10') is given as 80.3 ± 13.6%; in the experiment on morphine analgesia (20'), 87.2%; in the experiment on morphine analgesia (30'), 96.9 ± 3.0%; with morphine analgesia (45') it was 100.0 ± 0.0%; in the experiment with morphine analgesia (60'), 74.0 ± 16.0%; with morphine analgesia (90'), 75.3 ± 14.0%. In addition, in the experiment on morphine analgesia, the “M (10-90) ± SE, mean percentage variation of latency” value was determined as 85.6 ± 11.0%. The “Power ratio” value in the experiment on morphine analgesia stood at 2.87.

Values taken from patent US4791215A, “Derivatives of glutamic acid and aspartic acid” (priority 1984, dated 1988).
